Assay results from patent publication US12570695B2, “Bicyclic peptide ligands specific for EphA2” (priority 2019, dated 2026).
Starred links: 1 amine or outer side, 2 acyl side, 3 side chain; linkers in the order of their positions; H or OH if unused. Positions of bridges follow the written chain, without caps; N, C: chain ends. Non-standard residues stand in square brackets, D forms with d. Residues, ends and D or L forms follow the SMILES beside them. TATA = O=C(CC[*:1])N1CN(C(=O)CC[*:2])CN(C(=O)CC[*:3])C1; Ala(4-thiazolyl) = N[C@@H](Cc1cscn1)C(=O)O; Dip = N[C@H](C(=O)O)C(c1ccccc1)c1ccccc1; Hyp = O=C(O)[C@@H]1C[C@@H](O)CN1; hArg = N=C(N)NCCCC[C@H](N)C(=O)O; Cba = N[C@@H](CC1CCC1)C(=O)O; NMeA = CN[C@@H](C)C(=O)O; Mpa = O=C(O)CCS

These compounds were tested against human EphA2 (Homo sapiens, UniProt P29317) (assay: biochemical).
Sequence of human EphA2 (P29317 24-976): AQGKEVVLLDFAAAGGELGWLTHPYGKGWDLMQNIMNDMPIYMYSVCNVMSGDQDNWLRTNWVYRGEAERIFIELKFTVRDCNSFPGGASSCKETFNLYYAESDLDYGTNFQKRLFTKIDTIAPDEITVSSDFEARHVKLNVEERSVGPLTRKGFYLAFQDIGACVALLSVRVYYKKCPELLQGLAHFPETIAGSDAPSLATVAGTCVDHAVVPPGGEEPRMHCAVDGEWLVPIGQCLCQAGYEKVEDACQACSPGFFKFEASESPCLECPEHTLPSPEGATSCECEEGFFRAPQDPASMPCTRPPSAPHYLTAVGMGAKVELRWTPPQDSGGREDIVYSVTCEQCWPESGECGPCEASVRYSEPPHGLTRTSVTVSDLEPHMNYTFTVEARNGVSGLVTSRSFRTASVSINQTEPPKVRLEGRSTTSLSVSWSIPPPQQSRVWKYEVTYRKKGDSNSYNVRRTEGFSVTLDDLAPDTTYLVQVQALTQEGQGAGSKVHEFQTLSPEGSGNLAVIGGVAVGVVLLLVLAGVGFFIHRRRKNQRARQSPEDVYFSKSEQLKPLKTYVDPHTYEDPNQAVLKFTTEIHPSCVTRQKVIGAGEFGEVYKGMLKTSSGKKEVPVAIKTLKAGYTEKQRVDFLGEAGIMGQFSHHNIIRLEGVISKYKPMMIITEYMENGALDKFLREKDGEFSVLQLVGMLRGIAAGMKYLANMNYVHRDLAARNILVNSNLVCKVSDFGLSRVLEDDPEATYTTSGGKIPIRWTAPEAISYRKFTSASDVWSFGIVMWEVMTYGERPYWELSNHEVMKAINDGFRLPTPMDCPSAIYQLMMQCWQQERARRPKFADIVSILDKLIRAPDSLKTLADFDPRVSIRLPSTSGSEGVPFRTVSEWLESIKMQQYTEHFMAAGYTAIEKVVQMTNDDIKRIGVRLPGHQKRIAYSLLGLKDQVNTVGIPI
Description: Peptides without a fluorescent tag were tested in competition with a peptide with a fluorescent tag and a known Kd.
Peptides were diluted to an appropriate concentration in assay buffer as described in the direct binding assay with a maximum of 5% DMSO, then serially diluted 1 in 2. […] Measurements were conducted, however the gain was determined prior to the first measurement. Data analysis was in Systat Sigmaplot version 12.0 where the mP values were fit to a user defined cubic equation to generate a Ki value:
“Lig”, “KLig” and “Prot” were all defined values relating to: fluorescent peptide concentration, the Kd of the fluorescent peptide and EphA2 concentration respectively.

Compound	Ki [nM]
CC(=O)N[C@H]1CSCCC(=O)N2CN3CN(C2)C(=O)CCSC[C@H](NC(=O)[C@H](CC(C)C)NC(=O)[C@@H]2CCCN2C(=O)[C@H](CC(N)=O)NC(=O)[C@H](C(C)C)NC(=O)[C@H](CC(C)C)NC(=O)[C@@H]2C[C@@H](O)CN2C1=O)C(=O)N[C@@H](CC(C)C)C(=O)N[C@@H](Cc1c[nH]cn1)C(=O)N1CCC[C@H]1C(=O)N[C@H](CC(=O)O)C(=O)N[C@@H](Cc1c[nH]c2ccccc12)C(=O)N[C@@H](CCCCNC(=N)N)C(=O)N[C@H](C(=O)N[C@@H](CC(C)C)C(=O)N[C@H](Cc1c[nH]cn1)C(=O)NCC(=O)N[C@H](CCCCN)C(N)=O)CSCCC3=O [BCY13125, [Ac]Ci[HyP]LVNPLCiiLHP[dD]W[HArg]CiiiL[dH]G[dK]] (Ac-C[Hyp]LVNPLCLHP[dD]W[hArg]CL[dH]G[dK]-NH2; linker 1-8-15 via TATA; C-terminus assumed)	1.83
CC(C)C[C@@H]1NC(=O)[C@@H]2CSCCC(=O)N3CN(CN(C3)C(=O)CCSC[C@H](N)C(=O)N3C[C@H](O)C[C@H]3C(=O)N[C@@H](CC(C)C)C(=O)N[C@@H](C(C)C)C(=O)N[C@@H](CC(N)=O)C(=O)N3CCC[C@H]3C(=O)N[C@@H](CC(C)C)C(=O)N2)C(=O)CCSC[C@@H](C(=O)N[C@H](C)C(N)=O)NC(=O)[C@H]([C@@H](C)O)NC(=O)[C@H](Cc2c[nH]c3ccccc23)NC(=O)[C@@H](CC(=O)O)NC(=O)[C@@H]2CCCN2C(=O)[C@H](CCC(=O)O)NC1=O [BCY12861, Ci[HyP]LVNPLCiiLEP[dD]WTCiii[dA]] (H-C[Hyp]LVNPLCLEP[dD]WTC[dA]-NH2; linker 1-8-15 via TATA; N-terminus and C-terminus assumed)	21.7
CC(C)C[C@@H]1NC(=O)[C@@H]2CSCCC(=O)N3CN(CN(C3)C(=O)CCSC[C@H](NC(=O)[C@H](CC(=O)O)NC(=O)[C@H](CCCCNC(=N)N)NC(=O)[C@@H](C)N)C(=O)N3C[C@H](O)C[C@H]3C(=O)N[C@@H](CC3CCC3)C(=O)N[C@@H](C(C)C)C(=O)N[C@@H](CC(N)=O)C(=O)N3CCC[C@H]3C(=O)N[C@@H](CC(C)C)C(=O)N2)C(=O)CCSC[C@@H](C(=O)N[C@H](C)C(N)=O)NC(=O)[C@H]([C@@H](C)O)NC(=O)[C@H](Cc2c[nH]c3ccccc23)NC(=O)[C@@H](CC(=O)O)NC(=O)[C@@H]2CCCN2C(=O)[C@H](CCC(=O)O)NC1=O [BCY12864, [dA]-[HArg]-D-Ci[HyP][Cba]VNPLCiiLEP[dD]WTCiii-[dA]] (H-[dA][hArg]DC[Hyp][Cba]VNPLCLEP[dD]WTC[dA]-NH2; linker 4-11-18 via TATA; N-terminus and C-terminus assumed)	9.29
CN[C@@H](C)C(=O)N[C@@H](CCCCNC(=N)N)C(=O)N[C@@H](CC(=O)O)C(=O)N[C@H]1CSCCC(=O)N2CN3CN(C2)C(=O)CCSC[C@H](NC(=O)[C@H](CC(C)C)NC(=O)[C@@H]2CCCN2C(=O)[C@H](CC(N)=O)NC(=O)[C@H](C(C)C)NC(=O)[C@H](CC(C)C)NC(=O)[C@@H]2C[C@@H](O)CN2C1=O)C(=O)N[C@@H](CC(C)C)C(=O)N[C@@H](Cc1c[nH]cn1)C(=O)N1CCC[C@H]1C(=O)N[C@H](CC(=O)O)C(=O)N[C@@H](Cc1c[nH]c2ccccc12)C(=O)N[C@@H](CCCCNC(=N)N)C(=O)N[C@H](C(N)=O)CSCCC3=O [BCY13121, [NMeAla]-[HArg]-D-Ci[HyP]LVNPLCiiLHP[dD]W[HArg]Ciii] (H-[NMeA][hArg]DC[Hyp]LVNPLCLHP[dD]W[hArg]C-NH2; linker 4-11-18 via TATA; N-terminus and C-terminus assumed)	1.49
CC(C)C[C@@H]1NC(=O)[C@@H]2CSCCC(=O)N3CN(CN(C3)C(=O)CCSC[C@H](NC(=O)[C@H](CC(=O)O)NC(=O)[C@H](CCCCNC(=N)N)NC(=O)[C@H](C)N)C(=O)N3C[C@H](O)C[C@H]3C(=O)N[C@@H](CC(C)C)C(=O)N[C@@H](C(C)C)C(=O)N[C@@H](CC(N)=O)C(=O)N3CCC[C@H]3C(=O)N[C@@H](CC(C)C)C(=O)N2)C(=O)CCSC[C@@H](C(N)=O)NC(=O)[C@H](CCCCNC(=N)N)NC(=O)[C@H](Cc2c[nH]c3ccccc23)NC(=O)[C@@H](CC(=O)O)NC(=O)[C@@H]2CCCN2C(=O)[C@H](CCC(N)=O)NC1=O [BCY14048, A[HArg]DCi[HyP]LVNPLCiiLQP[dD]W[HArg]Ciii] (H-A[hArg]DC[Hyp]LVNPLCLQP[dD]W[hArg]C-NH2; linker 4-11-18 via TATA; N-terminus and C-terminus assumed)	4.1
CC(C)C[C@@H]1NC(=O)[C@@H]2CSCCC(=O)N3CN(CN(C3)C(=O)CCSC[C@H](NC(=O)[C@H](CC(=O)O)NC(=O)[C@H](CCCCNC(=N)N)NC(=O)[C@H](C)N)C(=O)N3C[C@H](O)C[C@H]3C(=O)N[C@@H](CC(C)C)C(=O)N[C@@H](C(C)C)C(=O)N[C@@H](CC(N)=O)C(=O)N3CCC[C@H]3C(=O)N[C@@H](CC(C)C)C(=O)N2)C(=O)CCSC[C@@H](C(N)=O)NC(=O)[C@H](CCCCNC(=N)N)NC(=O)[C@H](Cc2c[nH]c3ccccc23)NC(=O)[C@@H](CC(=O)O)NC(=O)[C@@H]2CCCN2C(=O)[C@H](CCC(=O)O)NC1=O [BCY12854, A-[HArg]-D-Ci[HyP]LVNPLCiiLEP[dD]W[HArg]Ciii] (H-A[hArg]DC[Hyp]LVNPLCLEP[dD]W[hArg]C-NH2; linker 4-11-18 via TATA; N-terminus and C-terminus assumed)	9.34
CC(C)C[C@@H]1NC(=O)[C@@H]2CSCCC(=O)N3CN(CN(C3)C(=O)CCSC[C@H](NC(=O)[C@H](CC(=O)O)NC(=O)[C@H](CCCCNC(=N)N)NC(=O)[C@H](C)N)C(=O)N3C[C@H](O)C[C@H]3C(=O)N[C@@H](CC(C)C)C(=O)N[C@@H](C(C)C)C(=O)N[C@@H](CC(N)=O)C(=O)N3CCC[C@H]3C(=O)N[C@@H](CC(C)C)C(=O)N2)C(=O)CCSC[C@@H](C(N)=O)NC(=O)[C@H](CCCCNC(=N)N)NC(=O)[C@H](Cc2c[nH]c3ccccc23)NC(=O)[C@@H](CC(=O)O)NC(=O)[C@@H]2CCCN2C(=O)[C@H](Cc2cscn2)NC1=O [BCY13919, A[HArg]DCi[HyP]LVNPLCiiL[4ThiAz]P[dD]W[HArg]Ciii] (H-A[hArg]DC[Hyp]LVNPLCL[Ala(4-thiazolyl)]P[dD]W[hArg]C-NH2; linker 4-11-18 via TATA; N-terminus and C-terminus assumed)	2.1
CC(C)C[C@@H]1NC(=O)[C@@H]2CSCCC(=O)N3CN(CN(C3)C(=O)CCSC[C@@H](C(=O)N[C@H](CCCCN)C(N)=O)NC(=O)[C@H]([C@@H](C)O)NC(=O)[C@H](Cc3c[nH]c4ccccc34)NC(=O)[C@@H](CC(=O)O)NC(=O)[C@@H]3CCCN3C(=O)[C@H](C(c3ccccc3)c3ccccc3)NC1=O)C(=O)CCSCCC(=O)N1C[C@H](O)C[C@H]1C(=O)N[C@@H](CC(C)C)C(=O)N[C@@H](C(C)C)C(=O)N[C@@H](CC(N)=O)C(=O)N1CCC[C@H]1C(=O)N[C@@H](CC(C)C)C(=O)N2 [BCY13129, [MerPro]i[HyP]LVNPLCiiL[3,3-DPA]P[dD]WTCiii[dK]] ([Mpa][Hyp]LVNPLCL[Dip]P[dD]WTC[dK]-NH2; linker 1-8-15 via TATA; C-terminus assumed)	1.88
